PMC5607274, “An iterative compound screening contest method for identifying target protein inhibitors using the tyrosine-protein kinase Yes” (Scientific Reports, 2017)

Biological target: T1, human recombinant Yes [a.a. 2–543 (end)] (Homo sapiens, UniProt P07947)
T1 construct: human recombinant Yes [a.a; 2–543 (end)]; purchased BPS Bioscience 40488
Assay: ADP-Glo kinase assay, inhibition rates of Yes phosphorylation activity (first and second screening)
Assay type: biochemical
Settings: 10 μmol L−1 compound; for First screening IR (inhibition rate): mean of n = 4 wells
Procedure, shortened: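 ADP-Glo luminescence measured inhibition of human recombinant Yes (a.a. 2–543) phosphorylation activity. In the first screen, each compound ran in 4 wells and inhibition rates were averaged. The second screen retested hits as compounds dissolved from fresh powder.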

T1 sequence (P07947 2-543): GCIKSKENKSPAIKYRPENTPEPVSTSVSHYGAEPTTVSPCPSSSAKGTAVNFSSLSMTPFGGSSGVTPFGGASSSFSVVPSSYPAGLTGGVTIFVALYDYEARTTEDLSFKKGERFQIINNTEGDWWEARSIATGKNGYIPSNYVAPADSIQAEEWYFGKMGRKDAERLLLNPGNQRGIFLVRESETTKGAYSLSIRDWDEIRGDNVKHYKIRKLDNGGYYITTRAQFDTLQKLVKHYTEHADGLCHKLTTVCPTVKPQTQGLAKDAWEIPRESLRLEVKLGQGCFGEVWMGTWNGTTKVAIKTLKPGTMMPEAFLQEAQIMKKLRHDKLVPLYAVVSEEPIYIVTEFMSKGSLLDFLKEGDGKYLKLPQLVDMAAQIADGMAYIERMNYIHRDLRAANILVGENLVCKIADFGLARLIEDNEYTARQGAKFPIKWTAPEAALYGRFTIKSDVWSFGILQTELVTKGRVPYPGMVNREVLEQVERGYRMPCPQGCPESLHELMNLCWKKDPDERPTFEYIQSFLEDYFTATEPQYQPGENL

Row | SMILES | First screening IR (inhibition rate) [%] | Second screening IR (inhibition rate) (second screening, dissolved from fresh powder, n = 4) [%]
1 | CN1CCN(C(=O)c2ccc(-c3cc(F)c(F)c(F)c3)cc2)C(CN)C1.Cl (stereo not shown) [Compound Z1457890473] | 13 | 
2 | O=C(OCCc1cn[nH]c1)c1ncoc1-c1ccco1 [Compound Z1463415737] | 57 | 
3 | CCCCn1c(CN2CCN(c3ccccn3)CC2)nc2c1c(=O)[nH]c(=O)n2Cc1ccccc1 [Compound Z104935524] | 2 | 
4 | COc1ccc(CCNC(=O)C(C#N)c2nc3ccccc3nc2N2CCN(Cc3ccccc3)CC2)cc1 (stereo not shown) [Compound Z56851971] | 3 | 
5 | CCN(C1CCS(=O)(=O)C1)S(=O)(=O)c1cc(Br)ccc1C (stereo not shown) [Compound Z89358343] | 1 | 
6 | CCOc1cc(/C=N/Nc2ccnc3cc(Cl)ccc23)ccc1O [Compound Z49625899] | 9 | 
7 | COc1ccc(/C=C2/CN(C)Cc3c2nc2ccccc2c3C(=O)O)cc1 [Compound Z46114702] | -7 | 
8 | N#Cc1ccccc1CSCCNC(=O)N1CCN(c2ncc(C(F)(F)F)cc2Cl)CC1 [Compound Z352490104] | -2 | 
9 | COC(=O)Cn1ncc2c(N3CCCC34CCCCC4)ncnc21 [Compound Z1527076116] | -3 | 
10 | CCOc1cc(N2CCOCC2)c(OCC)cc1NC(=O)CSc1nnc(-c2ccc3c(c2)OCO3)n1-c1ccccc1 [Compound Z16253844] | -3 | 
11 | CC(C)c1nn(C)c(Cl)c1CNCc1ccc(N2CCOCC2)c(F)c1 [Compound Z635707390] | -12 | 
12 | O=C(NCc1nc2ccccc2[nH]1)c1ccc(OCc2ccccc2)cc1 [Compound Z26780414] | 5 | 
13 | O=C(Cc1csc(-c2ccsc2)n1)Nc1ccc2nc(N3CCOCC3)sc2c1 [Compound Z99468124] | 8 | 
14 | O=C(c1cccn1Cc1ccncc1)N1CCOC(c2ccc(F)cc2)C1 (stereo not shown) [Compound Z998371530] | 13 | 
15 | O=C(CSc1nnc(-c2ccccc2F)n1CCc1ccccc1)c1ccc[nH]1 [Compound Z16427126] | -9 | 
16 | O=C(Nc1cnc2ccccc2c1)c1ccc(-n2ccc(C(F)(F)F)n2)cc1 [Compound Z815840280] | 9 | 
17 | CCc1cccc(NC(=O)COC(=O)Cc2cccc3ccccc23)c1 [Compound Z19678477] | 7 | 
18 | N#CC(C(=O)NCc1ccc2c(c1)OCO2)c1nc2ccccc2nc1N1CCN(Cc2ccccc2)CC1 (stereo not shown) [Compound Z56854297] | -7 | 
19 | Cc1sc2nc(CN3CCC(C)CC3)n(CC(=O)Nc3ccc(N4CCCC4)cc3)c(=O)c2c1C [Compound Z112958446] | -4 | 
20 | CC(C)c1ccc(C(=O)N2CCN(c3ccc(C#N)cn3)CC2)cc1 [Compound Z319076580] | -2 | 
21 | O=S(=O)(c1ccccc1C(F)(F)F)N1CCN(Cc2ncc(-c3ccc(Cl)cc3)o2)CC1 [Compound Z105146244] | -3 | 
22 | COC1(C)CC(N(C)C(=O)NC2CCCn3nc(C(C)C)nc32)C1(C)C (stereo not shown) [Compound Z1396774495] | -1 | 
23 | Cc1ccc(-c2cc(-c3cccc(Br)c3)nc3ccccc23)cc1 [Compound Z1847669462] | 0 | 

Row | SMILES | First screening IR (inhibition rate) [%] | Second screening IR (inhibition rate) (second screening, dissolved from fresh powder, n = 4) [%]
24 | CC(C)c1nncn1CCNC(=O)C(c1cc(Cl)cc(Cl)c1)N(C)C (stereo not shown) [Compound Z1430823330] | 5 | 
25 | Cc1cnc(NC(=O)CCCc2nc3ccccc3c(=O)[nH]2)s1 [Compound Z29324663] | 9 | 
26 | O=c1[nH]cnc2c1c(-c1ccccc1)cn2-c1ccc(F)cc1 [Compound Z314617634] | 7 | 
27 | O=C(NCc1ccccn1)c1cc(-c2cccnc2)nc2c1cnn2Cc1ccco1 [Compound Z242175442] | 22 | 
28 | Cc1nc2ccccc2c(=O)n1/N=C/c1c2ccccc2cc2ccccc12 [Compound Z49732101] | 2 | 
29 | Cc1ccc(C)c(-n2c(=O)/c(=C/c3ccc(OC(F)F)cc3)s/c2=C(/C#N)C(=O)NCCN2CCOCC2)c1 [Compound Z47852683] | 15 | 
30 | Cc1c(C#N)c(NC(=O)CN2CCC(n3c(=O)[nH]c4ccccc43)CC2)n(Cc2ccco2)c1C [Compound Z126941634] | 9 | 
31 | NS(=O)(=O)c1ccc(CCNC(=O)CSc2nnc(-c3ccccc3F)n2CCc2ccccc2)cc1 [Compound Z16426742] | -1 | 
32 | c1ccc(Cn2cccn2)c(CNc2cncc(-n3cccn3)n2)c1 [Compound Z432289626] | 41 | 18
33 | O=C(CN1CCN(c2cc(C(=O)N3CCOCC3)c3ccccc3n2)CC1)Nc1ccccc1Cl [Compound Z165229378] | 39 | 
34 | CC1CCN(c2ccc([N+](=O)[O-])cc2C(=O)N2CCN(Cc3cn4cc(Cl)ccc4n3)CC2)CC1 [Compound Z901305410] | -17 | 
35 | CCn1c(=O)c2c(nc3n(-c4ccc(N(C)C)cc4)c(C)cn23)n(C)c1=O [Compound Z278205390] | 10 | 
36 | Cc1ccc(-n2ncc(C(=O)Nc3ccccc3F)c2C2CC2)cc1Cl [Compound Z363094390] | -5 | 
37 | O=C(NCc1ccccc1)Nc1ccc2oc(C3CC3)nc2c1 [Compound Z369933958] | 11 | 
38 | O=C(NCc1nc(-c2ccccc2)n[nH]1)c1ccc(-c2ccccc2)cc1 [Compound Z991809296] | -14 | 
39 | CCC1CCCCN1S(=O)(=O)c1cc(S(C)(=O)=O)ccc1Cl (stereo not shown) [Compound Z355127288] | 7 | 
40 | CC1CN(c2ncnc3c2cnn3CCC#N)CCO1 (stereo not shown) [Compound Z990855820] | 4 | 
41 | O=C(Nc1cc(-c2ccc(Br)s2)[nH]n1)c1ccc2c(c1)COC2 [Compound Z956276516] | 68 | 
42 | Cc1cnc(C(=O)Nc2ccc3nc(-c4ccc(F)cc4)[nH]c3c2)cn1 [Compound Z651750688] | -2 | 
43 | Cc1ccc(-c2nn3c(=O)c4c(-c5cccs5)csc4nc3c3ccccc23)cc1 [Compound Z55164116] | 24 | 
44 | O=S(=O)(c1ccccc1Cl)N1CCN(Cc2cn3ccccc3n2)CC1 [Compound Z89155296] | 15 | 
45 | Cl.Fc1c(-c2ccccc2)nc2ccccc2c1-c1ccccc1 [Compound Z223042658] | 30 | 
46 | Cc1c(C(=O)Nc2ccnn2C2CCCC2)oc2c(Cl)cccc12 [Compound Z28468306] | 0 | 

Row | SMILES | First screening IR (inhibition rate) [%] | Second screening IR (inhibition rate) (second screening, dissolved from fresh powder, n = 4) [%]
47 | CC(Nc1ccc(C#N)cn1)c1ccc(OCc2cccnc2)cc1 (stereo not shown) [Compound Z644822950] | 2 | 
48 | CCCCN(S(C)(=O)=O)S(=O)(=O)c1ccc(OC)cc1 [Compound Z85927834] | 1 | 
49 | CCC(C)(C)C1C/C(=C\c2c(Cl)cccc2Cl)c2nc3ccccc3c(C(=O)O)c2C1 (stereo not shown) [Compound Z46116634] | 45 | 
50 | CCN(C1CCS(=O)(=O)C1)S(=O)(=O)c1ccc(Br)cc1 (stereo not shown) [Compound Z45467079] | 4 | 
51 | COc1cccc(OCCN2CCN(c3cc(C)nc4c(-c5ccc(Cl)cc5)c(C)nn34)CC2)c1 [Compound Z435980234] | 3 | 
52 | N#CC(C#N)=CC1=C2OC(c3ccccc3)=CC(c3ccccc3)=C2CCC1 [Compound Z56760799] | 14 | 
53 | CN(Cc1ccc(OC(F)F)cc1)C(=O)CN1C(=O)NC(C)(c2ccccc2Br)C1=O (stereo not shown) [Compound Z14158957] | 23 | 
54 | Cc1ccc([N+](=O)[O-])c(N2CCC(NCCO)CC2)c1 [Compound Z1576995201] | -9 | 
55 | CC(C)COCCCNS(=O)(=O)CCCS(=O)(=O)N(C)C [Compound Z1702883776] | -12 | 
56 | Cc1nn(-c2ccccc2)c(Cl)c1CN1CCN(S(=O)(=O)c2ccccc2C(F)(F)F)CC1 [Compound Z94609806] | 3 | 
57 | CC1CCc2c(sc3nc(-c4cccnc4)nc(N4CCCCCCC4)c23)C1 (stereo not shown) [Compound Z31262492] | 4 | 
58 | N#Cc1ccsc1NC(=O)CCCSc1nc2ccccc2[nH]1 [Compound Z29082077] | 16 | 
59 | CCC1CN(C(=O)OCc2ccccc2)C(CC)CN1C(=O)CCc1cnn(C)c1 (stereo not shown) [Compound Z1251624666] | -2 | 
60 | O=C1CCCN1c1ccc(Nc2nccc(C(F)(F)F)n2)cc1 [Compound Z285697278] | -12 | 
61 | O=C(c1cc(C2CC2)[nH]n1)N1CCC(=Cc2cc(Cl)ccc2Cl)CC1 [Compound Z1432870591] | 2 | 
62 | COc1ccc(-c2cc(CSCc3nc(N)nc(Nc4ccccc4)n3)on2)cc1 [Compound Z317187130] | -7 | 
63 | CCCn1c(C)cc(-c2csc(NC(=O)CCN3C(=O)COc4ccccc43)n2)c1C [Compound Z90896104] | -7 | 
64 | CC(C)S(=O)(=O)CCS(=O)(=O)C(C)c1ccc(F)cc1 (stereo not shown) [Compound Z1347351122] | 12 | 
65 | O=C(OCc1nc(-c2cccs2)no1)c1ccc2ccccc2n1 [Compound Z51170832] | 19 | 
66 | COc1ccc(C)cc1C(C)NC(=O)CCc1nc2ccccc2[nH]1 (stereo not shown) [Compound Z197873940] | 60 | 
67 | COc1ccc(-c2nnc(SCC(=O)N3c4ccccc4OCC3c3ccccc3)n2C)cc1 (stereo not shown) [Compound Z65980497] | -3 | 
68 | Cc1ccc(-n2nc(C)c3c(C(=O)Nc4nc(CN5CCOCC5)cs4)cc(-c4ccccc4)nc32)cc1 [Compound Z28032810] | -1 | 
69 | O=C(NCCCc1c[nH]c2ccccc12)Nc1ccncc1F [Compound Z1677751393] | 19 | 
